Values after ≈ are worked out from the molar mass of the structure shown.
What was measured:
Pseudomonas aeruginosa [1] = assay: Antibacterial activity against Pseudomonas aeruginosa 12 incubated for 20 hrs by agar dilution method; assay type: functional
Escherichia coli [2] = assay: Antibacterial activity against Escherichia coli NIHJ JC2 incubated for 20 hrs by agar dilution method; assay type: functional
Staphylococcus aureus [3] = assay: Antibacterial activity against Staphylococcus aureus 209P JC1 incubated for 20 hrs by agar dilution method; assay type: functional
Streptococcus pneumoniae = assay: Antibacterial activity against Streptococcus pneumoniae RCMB 010010 by broth dilution method; assay type: functional
Bacillus subtilis = assay: Antibacterial activity against Bacillus subtilis RCMB 010067 by broth dilution method; assay type: functional
Staphylococcus aureus [4] = assay: Antibacterial activity against Staphylococcus aureus RCMB 010025 by broth dilution method; assay type: functional
Pseudomonas aeruginosa [5] = assay: Antibacterial activity against Pseudomonas aeruginosa RCMB 010043 by broth dilution method; assay type: functional
Escherichia coli [6] = assay: Antibacterial activity against Escherichia coli RCMB 010052 by broth dilution method; assay type: functional
Klebsiella pneumoniae [7] = assay: Antibacterial activity against Klebsiella pneumonia RCMB 010058 by broth dilution method; assay type: functional
Escherichia coli [8] = assay: Antibacterial activity against Escherichia coli ATCC 25922 incubated for 24 hrs by tube dilution method; assay type: functional
Klebsiella pneumoniae [9] = assay: Antibacterial activity against Klebsiella pneumoniae ATCC 15380 incubated for 24 hrs by tube dilution method; assay type: functional
Pseudomonas aeruginosa [10] = assay: Antibacterial activity against Pseudomonas aeruginosa ATCC 12454 incubated for 24 hrs by tube dilution method; assay type: functional
Staphylococcus aureus [11] = assay: Antibacterial activity against Staphylococcus aureus ATCC 25923 incubated for 24 hrs by tube dilution method; assay type: functional
Streptococcus pyogenes = assay: Antibacterial activity against Streptococcus pyogenes ATCC 35552 incubated for 24 hrs by tube dilution method; assay type: functional
Bacillus cereus [12] = assay: Antibacterial activity against Bacillus cereus ATCC 10876 incubated for 24 hrs by microdilution method; assay type: functional
Enterococcus faecalis [13] = assay: Antibacterial activity against Enterococcus faecalis ATCC 29212 incubated for 24 hrs by microdilution method; assay type: functional
Staphylococcus aureus [14] = assay: Antibacterial activity against Staphylococcus aureus ATCC 25923 incubated for 24 hrs by microdilution method; assay type: functional
Proteus mirabilis = assay: Antibacterial activity against Proteus mirabilis ATCC 35659 incubated for 24 hrs by microdilution method; assay type: functional
Escherichia coli [15] = assay: Antibacterial activity against Escherichia coli ATCC 25922 incubated for 24 hrs by microdilution method; assay type: functional
Pseudomonas aeruginosa [16] = assay: Antibacterial activity against Pseudomonas aeruginosa ATCC 27853 incubated for 24 hrs by microdilution method; assay type: functional
Candida albicans = assay: Antifungal activity against Candida albicans ATCC 50193 incubated for 24 hrs by microdilution method; assay type: functional
Aspergillus brasiliensis = assay: Antifungal activity against Aspergillus brasiliensis ATCC 16404 incubated for 24 hrs by microdilution method; assay type: functional
Salmonella enterica = assay: Antibacterial activity against Salmonella enterica MTCC 3224 incubated overnight by broth dilution technique; assay type: functional, organism-based
Pseudomonas aeruginosa [17] = assay: Antibacterial activity against Pseudomonas aeruginosa MTCC 2453 incubated overnight by broth dilution technique; assay type: functional, organism-based
Enterococcus faecalis [18] = assay: Antibacterial activity against Enterococcus faecalis MTCC 439 incubated overnight by broth dilution technique; assay type: functional, organism-based
Klebsiella pneumoniae [19] = assay: Antibacterial activity against Klebsiella pneumoniae ATCC 700603 incubated overnight by broth dilution technique; assay type: functional, organism-based
Escherichia coli [20] = assay: Antibacterial activity against Escherichia coli ATCC 25922 incubated overnight by broth dilution technique; assay type: functional, organism-based
Staphylococcus aureus [21] = assay: Antibacterial activity against Staphylococcus aureus ATCC 29737 incubated for 24 hrs; assay type: functional
Micrococcus luteus = assay: Antibacterial activity against Micrococcus Luteus ATCC 398 incubated for 24 hrs; assay type: functional
Bacillus cereus [22] = assay: Antibacterial activity against Bacillus cereus ATCC 6630 incubated for 24 hrs; assay type: functional
Escherichia coli [23] = assay: Antibacterial activity against Escherichia coli NCIM 2256 incubated for 24 hrs; assay type: functional
Pseudomonas fluorescens = assay: Antibacterial activity against Pseudomonas fluorescens NCIM 2173 incubated for 24 hrs; assay type: functional
[24] = system: Sphingomonas paucimobilis; assay: Antibacterial activity against Flavobacterium devorans ATCC 10829 incubated for 24 hrs; assay type: functional
Aspergillus niger = assay: Antifungal activity against Aspergillus niger NCIM 1196 incubated for 48 hrs; assay type: functional
Penicillium chrysogenum = assay: Antifungal activity against Penicillium chrysogenum NCIM 723 incubated for 48 hrs; assay type: functional
Curvularia lunata = assay: Antifungal activity against Curvularia lunata NCIM 1131 incubated for 48 hrs; assay type: functional

NC1CCN(c2c(Cl)c3c(c(=O)c(C(=O)O)cn3C3CC3)c3[nH]nnc23)C1 (centres undefined)
MIC (Pseudomonas aeruginosa [1]): 0.05 µg/mL (≈ 0.129 µM)
MIC (Escherichia coli [2]): 0.05 µg/mL (≈ 0.129 µM)
MIC (Staphylococcus aureus [3]): 0.05 µg/mL (≈ 0.129 µM)

CC(=O)OCCCSc1nnc(-c2nnn(-c3ccccc3Cl)c2-c2nnc(SCCCOC(C)=O)o2)o1
MIC (Streptococcus pneumoniae): 31.2 µg/mL (≈ 53.9 µM)
MIC (Bacillus subtilis): 31.2 µg/mL (≈ 53.9 µM)
MIC (Staphylococcus aureus [4]): 31.2 µg/mL (≈ 53.9 µM)
MIC (Pseudomonas aeruginosa [5]): 31.2 µg/mL (≈ 53.9 µM)
MIC (Escherichia coli [6]): 31.2 µg/mL (≈ 53.9 µM)
MIC (Klebsiella pneumoniae [7]): 31.2 µg/mL (≈ 53.9 µM)

Cc1cc(C)cc(Cn2cc(COc3ccccc3-c3nn(-c4ccccc4)cc3C=O)nn2)c1
MIC (Escherichia coli [8]): 5.5 µg/mL (≈ 11.9 µM)
MIC (Klebsiella pneumoniae [9]): 5.5 µg/mL (≈ 11.9 µM)
MIC (Pseudomonas aeruginosa [10]): 5.5 µg/mL (≈ 11.9 µM)
MIC (Staphylococcus aureus [11]): 5.5 µg/mL (≈ 11.9 µM)
MIC (Streptococcus pyogenes): 5.5 µg/mL (≈ 11.9 µM)

NC1CCN(c2c(F)c3c(c(=O)c(C(=O)O)cn3C3CC3)c3[nH]nnc23)C1 (centres undefined)
MIC (Pseudomonas aeruginosa [1]): 0.05 µg/mL (≈ 0.134 µM)
MIC (Escherichia coli [2]): 0.05 µg/mL (≈ 0.134 µM)
MIC (Staphylococcus aureus [3]): 0.05 µg/mL (≈ 0.134 µM)

NCC1CCN(c2c(F)c3c(c(=O)c(C(=O)O)cn3C3CC3)c3[nH]nnc23)C1 (centres undefined)
MIC (Pseudomonas aeruginosa [1]): 0.05 µg/mL (≈ 0.129 µM)
MIC (Escherichia coli [2]): 0.05 µg/mL (≈ 0.129 µM)
MIC (Staphylococcus aureus [3]): 0.05 µg/mL (≈ 0.129 µM)

CCCCCCCCCCCCCCn1nnc(-c2n[nH]c(=S)n2N)c1-c1n[nH]c(=S)n1N
MIC (Bacillus cereus [12]): 1 µg/mL (≈ 2.03 µM)
MIC (Enterococcus faecalis [13]): 1 µg/mL (≈ 2.03 µM)
MIC (Staphylococcus aureus [14]): 1 µg/mL (≈ 2.03 µM)
MIC (Proteus mirabilis): 1 µg/mL (≈ 2.03 µM)
MIC (Escherichia coli [15]): 1 µg/mL (≈ 2.03 µM)
MIC (Pseudomonas aeruginosa [16]): 1 µg/mL (≈ 2.03 µM)
MIC (Candida albicans): 1 µg/mL (≈ 2.03 µM)
MIC (Aspergillus brasiliensis): 1 µg/mL (≈ 2.03 µM)

O=C(O)c1cn(C2CC2)c2c(F)c(N3CCCCC3)c3nn[nH]c3c2c1=O
MIC (Pseudomonas aeruginosa [1]): 0.05 µg/mL (≈ 0.135 µM)
MIC (Escherichia coli [2]): 0.05 µg/mL (≈ 0.135 µM)
MIC (Staphylococcus aureus [3]): 0.05 µg/mL (≈ 0.135 µM)

CCOCSc1nnc(-c2nnn(-c3ccccc3Cl)c2-c2nnc(SCOCC)o2)o1
MIC (Streptococcus pneumoniae): 31.2 µg/mL (≈ 63 µM)
MIC (Bacillus subtilis): 31.2 µg/mL (≈ 63 µM)
MIC (Staphylococcus aureus [4]): 31.2 µg/mL (≈ 63 µM)
MIC (Pseudomonas aeruginosa [5]): 31.2 µg/mL (≈ 63 µM)
MIC (Escherichia coli [6]): 31.2 µg/mL (≈ 63 µM)
MIC (Klebsiella pneumoniae [7]): 31.2 µg/mL (≈ 63 µM)

CCCCCCCCCCCCCCn1nnc(-c2n[nH]c(=S)n2-c2ccccc2)c1-c1n[nH]c(=S)n1-c1ccccc1
MIC (Bacillus cereus [12]): 2 µg/mL (≈ 3.25 µM)
MIC (Enterococcus faecalis [13]): 2 µg/mL (≈ 3.25 µM)
MIC (Staphylococcus aureus [14]): 2 µg/mL (≈ 3.25 µM)
MIC (Proteus mirabilis): 2 µg/mL (≈ 3.25 µM)
MIC (Escherichia coli [15]): 2 µg/mL (≈ 3.25 µM)
MIC (Pseudomonas aeruginosa [16]): 2 µg/mL (≈ 3.25 µM)
MIC (Candida albicans): 2 µg/mL (≈ 3.25 µM)
MIC (Aspergillus brasiliensis): 2 µg/mL (≈ 3.25 µM)

C[C@@H]1CN(c2c(F)c(N)c3c(=O)c(C(=O)O)cn(C4CC4)c3c2F)C[C@H](C)N1 [SPARFLOXACIN]
MIC (Pseudomonas aeruginosa [1]): 0.0125 µg/mL (≈ 0.0319 µM)
MIC (Escherichia coli [2]): 0.0125 µg/mL (≈ 0.0319 µM)
MIC (Staphylococcus aureus [3]): 0.0125 µg/mL (≈ 0.0319 µM)

COc1ccc(-n2cc(COc3cccc4cccnc34)nn2)cc1
IC50 (Salmonella enterica): 164 µg/mL (≈ 495 µM)
IC50 (Pseudomonas aeruginosa [17]): 164 µg/mL (≈ 495 µM)
IC50 (Enterococcus faecalis [18]): 164 µg/mL (≈ 495 µM)
IC50 (Klebsiella pneumoniae [19]): 164 µg/mL (≈ 495 µM)
IC50 (Escherichia coli [20]): 164 µg/mL (≈ 495 µM)

O=Cc1cn(-c2ccccc2)nc1-c1ccccc1OCc1cn(Cc2ccc(Br)cc2)nn1
MIC (Escherichia coli [8]): 5.5 µg/mL (≈ 10.7 µM)
MIC (Klebsiella pneumoniae [9]): 5.5 µg/mL (≈ 10.7 µM)
MIC (Pseudomonas aeruginosa [10]): 5.5 µg/mL (≈ 10.7 µM)
MIC (Staphylococcus aureus [11]): 5.5 µg/mL (≈ 10.7 µM)
MIC (Streptococcus pyogenes): 5.5 µg/mL (≈ 10.7 µM)

CC1CCN(c2cc3c(c(=O)c(C(=O)O)cn3C3CC3)c3[nH]nnc23)CC1
MIC (Pseudomonas aeruginosa [1]): 0.05 µg/mL (≈ 0.136 µM)
MIC (Escherichia coli [2]): 0.05 µg/mL (≈ 0.136 µM)
MIC (Staphylococcus aureus [3]): 0.05 µg/mL (≈ 0.136 µM)

CC1CCN(c2c(Cl)c3c(c(=O)c(C(=O)O)cn3C3CC3)c3[nH]nnc23)CC1
MIC (Pseudomonas aeruginosa [1]): 0.05 µg/mL (≈ 0.124 µM)
MIC (Escherichia coli [2]): 0.05 µg/mL (≈ 0.124 µM)
MIC (Staphylococcus aureus [3]): 0.05 µg/mL (≈ 0.124 µM)

O=c1cc(OCc2cn(Cc3cccc([N+](=O)[O-])c3)nn2)c2ccccc2o1
MIC (Staphylococcus aureus [21]): 2 µg/mL (≈ 5.29 µM)
MIC (Micrococcus luteus): 2 µg/mL (≈ 5.29 µM)
MIC (Bacillus cereus [22]): 2 µg/mL (≈ 5.29 µM)
MIC (Escherichia coli [23]): 2 µg/mL (≈ 5.29 µM)
MIC (Pseudomonas fluorescens): 2 µg/mL (≈ 5.29 µM)
MIC [24]: 2 µg/mL (≈ 5.29 µM)
MIC (Aspergillus niger): 2 µg/mL (≈ 5.29 µM)
MIC (Penicillium chrysogenum): 2 µg/mL (≈ 5.29 µM)
MIC (Curvularia lunata): 2 µg/mL (≈ 5.29 µM)

O=Cc1cn(-c2ccccc2)nc1-c1ccccc1OCc1cn(Cc2ccccc2)nn1
MIC (Escherichia coli [8]): 5.5 µg/mL (≈ 12.6 µM)
MIC (Klebsiella pneumoniae [9]): 5.5 µg/mL (≈ 12.6 µM)
MIC (Pseudomonas aeruginosa [10]): 5.5 µg/mL (≈ 12.6 µM)
MIC (Staphylococcus aureus [11]): 5.5 µg/mL (≈ 12.6 µM)
MIC (Streptococcus pyogenes): 5.5 µg/mL (≈ 12.6 µM)

OCC(O)CSc1nnc(-c2nnn(-c3ccccc3Cl)c2-c2nnc(SCC(O)CO)o2)o1 (centres undefined)
MIC (Streptococcus pneumoniae): 4 µg/mL (≈ 7.58 µM)
MIC (Bacillus subtilis): 4 µg/mL (≈ 7.58 µM)
MIC (Staphylococcus aureus [4]): 4 µg/mL (≈ 7.58 µM)
MIC (Pseudomonas aeruginosa [5]): 4 µg/mL (≈ 7.58 µM)
MIC (Escherichia coli [6]): 4 µg/mL (≈ 7.58 µM)
MIC (Klebsiella pneumoniae [7]): 4 µg/mL (≈ 7.58 µM)

Reference: ChEMBL document CHEMBL4699440, “Comprehensive review on the anti-bacterial activity of 1,2,3-triazole hybrids” (Eur J Med Chem, 2019)
